These results are taken from patent US20260378560A1, “APPROACHES TO DESIGNING AND PERFORMING COMPRESSED BIOLOGICAL EXPERIMENTS AND SYSTEMS FOR IMPLEMENTING THE SAME” (EXVIVO LABS INC., priority 2023, published 2026).

The test system of experiment [1] is MOLT-4. In words: Cell viability (CellTiter Glo), library of cancer drugs, individual or sample compression with randomized (alphabetical) pools, MOLT-4. In kind it is cell-based. The following applies: for DRS: MOLT-4, None (measured individually); for DRS from deconvolution: MOLT-4, Samples, 7 Pick 3 randomized (alphabetical) sample pools. Summed up: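 Cells cultured with each drug individually at 1 nM–10 μM; viability by ATP luminescence (CellTiter Glo) to build dose-response curves and DRS. Samples read singly or pooled alphabetically (each drug in 3 of 7 pools), with pooled DRS recovered by additivity-based SUM deconvolution.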

Experiment [2] concerns MOLT-4. Nature of the experiment: Cell viability (CellTiter Glo), compressed perturbation pools with informed pool design, MAX-based deconvolution, MOLT-4.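 For DRS from MAX-based deconvolution: higher DRS means a larger drug effect.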 The following applies: for DRS: MOLT-4, None (measured individually), informed pool design table; for DRS from MAX-based deconvolution: MOLT-4, Samples, 7 Pick 3 informed perturbation pools; for DRS, MOLT-4, MAX: compressed perturbation pools, informed pool design, MAX-based deconvolution. Summed up: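 Per-drug DRS recovered by MAX deconvolution, which assumes the strongest pool member masks the rest; after ranking, each drug in turn takes the DRS of the lowest-signal pool containing it, and leftovers score zero. Pools built from drug class and known toxic combinations; dose-response spans 1 nM to 10 μM, read by ATP-based luminescence.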
A general note: In ATP-based viability assays light output follows the ATP content of the culture.

Experiment [3] concerns NALM-6. In words: ATP-based luminescence cell viability (CellTiter Glo), drug response score, NALM-6. The following applies: for DRS from deconvolution: NALM-6, Target compression, 7 Pick 3 pools; for drug response score (DRS): NALM-6, screened individually (Compress: None). The text has this:
As part of a screen, a drug could be screened at different concentrations ranging from a lowest concentration to a highest concentration. In such a scenario, multiple data structures may be obtained by the screening platform 210. […] With these multiple data structures, the analysis module 218 can generate a dose-response curve that describes the magnitude of the response of the biological target, as a function of exposure to different concentrations of the drug. Further, the analysis module 218 can calculate a metric that is indicative of the response of the biological target. In the event that the biological target is one of multiple biological targets that are introduced to the pools of drugs, the metric can be used by the screening platform 210 to better understand the relative magnitude of responses. One example of a metric is drug-response score (“DRS”). DRS can be calculated as a continuous function of multiple parameters of the non-linear dose-response curve, including the slope at the half-maximal effective concentration (also called “EC50”) and the top and bottom asymptotes of the dose-response curve. DRS can be calculated as follows: […]
where y is a continuous function of the variable dose x, a is the maximal response (i.e., the top asymptote of the curve), b is the slope of the curve, c is the IC50 (i.e., half-maximal inhibitory concentration), and d is the minimal response (i.e., the bottom asymptote of the curve). Other examples of metrics include those output by sigmoidal and Hill slide functions that, like DRS, incorporate multiple aspects of the dose-response curve into a continuous function.
Total cell viability was measured for each cancer cell line using an Adenosine TriPhosphate (“ATP”) assay, and more specifically an ATP-based luminescence assay (i.e., CellTiter Glo). Each cancer drug was screened at multiple concentrations ranging from one nanomolar (nM) to ten micromolar (UM) in order to generate a dose-response curve and calculate a drug response score (“DRS”) for each cancer cell line. The DRS was calculated as a continuous function of multiple parameters of the non-linear dose-response curve, including the slope at the half-maximal effective concentration (also called “EC50”) and the top and bottom asymptotes of the dose-response curve. […] After total cell viability was measured and DRS was calculated, the DRS of each cancer cell line in the pool was deconvolved for each cancer drug.
DRS for these anchor cell lines are bolded and italicized. Anchors can be identified based on frequency of the cell lines in pools with high DRS versus low DRS. At a high level, an anchor is predicted to be the cell line with the lowest individual DRS. In order to deconvolute individual cell line DRS values from pool DRS values, the anchor can start with an assumed DRS value of zero. Each pool can then be expressed as a polynomial of variables (cell lines in the pool) and constants (DRS value of the pool). The DRS value of each cell line can then be solved for using the anchor value and overlapping polynomial expressions. When multiple values are calculated for the final target solved from the polynomials, then the anchor has a non-zero value that can be determined based on the difference in the calculated value of the final target.
Each pool represented a co-culture of three cell lines (“Target Compression”).

For `N#Cc1ccnc(N2C(=O)CC[C@H]2C(=O)N(c2cncc(F)c2)[C@H](C(=O)NC2CC(F)(F)C2)c2ccccc2Cl)c1` [Ivosidenib], in experiment [1], the DRS is recorded as 0.11 and the DRS from deconvolution was 0.00. Moreover, in experiment [2], the DRS is reported as 1.12 and the “DRS from MAX-based deconvolution” value is reported as 1.96. In experiment [3], the DRS from deconvolution was 0.00 and the “drug response score (DRS)” value is reported as 0.00.
In experiment [1], `Cc1[nH]c2ccccc2c1CCNCc1ccc(/C=C/C(=O)NO)cc1` [Panobinostat] gave a DRS of 15.70 and a DRS from deconvolution of 16.56. Also, in experiment [2], the DRS was determined as 3.01 and the “DRS from MAX-based deconvolution” value is 3.24. In addition, in experiment [3], the DRS from deconvolution was found to be 15.85 and the “drug response score (DRS)” value is reported as 16.30.
In experiment [1], `COc1c(OCCCN2CCOCC2)ccc2c1N=C(NC(=O)c1cnc(N)nc1)N1CCN=C21` [Copanlisib] came in with a DRS of 9.01 and a DRS from deconvolution of 9.65. In experiment [2], the DRS was determined as 0.03 and the “DRS from MAX-based deconvolution” value was found to be 0.03. In experiment [3], the DRS from deconvolution turned out to be 13.74 and the “drug response score (DRS)” value is 13.14.
In experiment [1], `C=CC(=O)Nc1cc(Nc2nccc(-c3cn(C)c4ccccc34)n2)c(OC)cc1N(C)CCN(C)C` [Osimertinib] displayed a DRS of 1.84 and a DRS from deconvolution of 0.99. Besides, in experiment [2], the DRS was determined as 0.10; the “DRS from MAX-based deconvolution” value amounted to 0.00; the “DRS, MOLT-4, MAX” value was 0.00.
`CC1(C)CCC(CN2CCN(c3ccc(C(=O)NS(=O)(=O)c4ccc(NCC5CCOCC5)c([N+](=O)[O-])c4)c(Oc4cnc5[nH]ccc5c4)c3)CC2)=C(c2ccc(Cl)cc2)C1` [Venetoclax]: in experiment [1], the DRS came to 2.74 and the DRS from deconvolution is on record as 2.89. In addition, in experiment [2], the DRS turned out to be 3.37; the “DRS from MAX-based deconvolution” value is reported as 3.88; the “DRS, MOLT-4, MAX” value is reported as 3.41. Besides, in experiment [3], the DRS from deconvolution worked out at 9.54 and the “drug response score (DRS)” value is given as 7.30.
Consider `COc1cc2ncnc(Nc3ccc(F)c(Cl)c3)c2cc1OCCCN1CCOCC1` [Gefitinib], for which, in experiment [1], the DRS is listed as 2.96 and the DRS from deconvolution was determined as 3.02. For the same compound, in experiment [2], the DRS was 0.00; the “DRS from MAX-based deconvolution” value was 0.00; the “DRS, MOLT-4, MAX” value was determined as 0.00.
